Data taken from patent US20240124470A1, “FIVE-MEMBERED RING DERIVATIVE AND MEDICAL USE THEREOF” (SICHUAN HAISCO PHARMACEUTICAL CO., LTD., priority 2020, published 2024).
pEC50, pIC50: −log10 of the molar value. Structures can show the parent of a compound that is named as a salt. Where two headings read alike, the source gives them in different places.

Legend:
hERG potassium channel = molecular target: T1, hERG potassium channel (Homo sapiens, UniProt Q12809); assay: Effects on hERG potassium channels, manual whole cell patch-clamp in CHO cells; type: cell-based; settings: hERG potassium current, room temperature
T1 construct: expressed in transfected cells
T1 sequence (Q12809 whole entry): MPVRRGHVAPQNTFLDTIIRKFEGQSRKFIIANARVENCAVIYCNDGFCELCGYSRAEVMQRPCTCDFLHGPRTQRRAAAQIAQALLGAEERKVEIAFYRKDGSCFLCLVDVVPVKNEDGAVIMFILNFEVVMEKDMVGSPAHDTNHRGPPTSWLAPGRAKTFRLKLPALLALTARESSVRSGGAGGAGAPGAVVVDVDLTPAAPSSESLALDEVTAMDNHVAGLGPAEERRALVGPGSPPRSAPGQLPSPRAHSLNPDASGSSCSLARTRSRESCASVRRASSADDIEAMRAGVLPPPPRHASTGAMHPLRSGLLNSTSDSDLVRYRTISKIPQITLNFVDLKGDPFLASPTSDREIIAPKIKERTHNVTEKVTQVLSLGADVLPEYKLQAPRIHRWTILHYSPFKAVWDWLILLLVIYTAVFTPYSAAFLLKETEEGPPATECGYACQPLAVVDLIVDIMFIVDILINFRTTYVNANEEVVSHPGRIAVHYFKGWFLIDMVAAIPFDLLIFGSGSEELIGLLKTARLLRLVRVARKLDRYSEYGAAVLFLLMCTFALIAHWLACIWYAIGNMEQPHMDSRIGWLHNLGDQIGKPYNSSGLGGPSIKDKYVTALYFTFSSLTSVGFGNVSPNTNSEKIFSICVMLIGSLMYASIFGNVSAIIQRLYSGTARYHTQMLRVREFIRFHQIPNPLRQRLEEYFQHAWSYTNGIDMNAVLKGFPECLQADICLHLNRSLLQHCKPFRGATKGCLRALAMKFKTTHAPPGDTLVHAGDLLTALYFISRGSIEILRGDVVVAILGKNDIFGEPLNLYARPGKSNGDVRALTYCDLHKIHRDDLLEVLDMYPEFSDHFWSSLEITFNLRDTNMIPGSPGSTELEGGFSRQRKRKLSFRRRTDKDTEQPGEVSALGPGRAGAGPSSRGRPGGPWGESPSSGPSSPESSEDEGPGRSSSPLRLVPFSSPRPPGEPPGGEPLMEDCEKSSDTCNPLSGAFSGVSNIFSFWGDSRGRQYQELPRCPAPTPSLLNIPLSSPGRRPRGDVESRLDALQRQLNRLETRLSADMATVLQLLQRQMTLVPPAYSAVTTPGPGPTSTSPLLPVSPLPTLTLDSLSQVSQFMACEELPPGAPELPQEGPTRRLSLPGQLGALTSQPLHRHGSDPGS
Description: 2. Effects of the Compounds on hERG Potassium Channels
Experimental platform: electrophysiological manual patch-clamp system
Cell line: Chinese hamster ovary (CHO) cells stably expressing hERG potassium ion channel
Experimental method: For CHO (Chinese Hamster Ovary) cells stably expressing hERG potassium channel, whole cell patch-clamp technique was used to recorded hERG potassium channel current at room temperature in this experiment. The glass microelectrode is made of a glass electrode blank (BF150-86-10, Sutter) by a puller. The tip resistance after filling the liquid in the electrode is about 2-5 MΩ. The glass microelectrode can be connected to the patch-clamp amplifier by inserting the glass microelectrode into an amplifier probe. The clamping voltage and data recording are controlled and recorded by the pClamp 10 software through a computer. The sampling frequency is 10 kHz, and the filtering frequency is 2 kHz. After the whole cell records were obtained, the cells were clamped at −80 mV, and the step voltage that induced the hERG potassium current (IhERG) was depolarized from −80 mV to +20 mV for 2 s, then repolarized to −50 mV, and returned to −80 mV after 1 s. This voltage stimulation was given every 10 s, and the administration process was started after the hERG potassium current was confirmed to be stable (at least 1 minute). The compound was administered for at least 1 minute at each test concentration, and at least 2 cells (n≥2) were tested at each concentration.
Data analysis processing was carried out by using pClamp 10, GraphPad Prism 5 and Excel software. The inhibition degree of hERG potassium current (peak value of hERG tail current induced at −50 mV) at different compound concentrations was calculated by the following formula: Inhibition %=[1−(I/Io)]×100%.
Among the formula, Inhibition % represents the percentage of inhibition of hERG potassium current by the compound, and I and Io represent the amplitude of hERG potassium current after and before dosing, respectively.
Compound IC50 was calculated using GraphPad Prism 5 software by fitting according to the following equation:
Y=Bottom+(Top−Bottom)/(1+10^((LogIC50−X)×HillSlope))
Among the equation, X represents the Log value of the tested concentration of the test sample, Y represents the inhibition percentage at the corresponding concentration, and Bottom and Top represent the minimum and maximum inhibition percentage, respectively.

[1] = Stability test in mouse liver microsomes; type: in vitro ADME; settings: mouse liver microsomes 0.5 mg/mL, 1 μM compound, NADPH, 37° C.; for microsomal CLint at 1 μM: read-out: CLint(mic)
Method: (§1) 3. Stability Test in Mouse Liver Microsomes At 37° C., 1 μM of the test compound was incubated with mouse liver microsomes (0.5 mg/mL) supplemented with NADPH regeneration system for 5, 10, 20, 30 and 60 minutes, and then LC-MS/MS method was used to detect the concentration of the test compound in the generated sample. The half-life (T1/2) and inherent clearance rate (CLint(mic)) of the compound in mouse liver microsome solution were obtained by calculating at the corresponding time points and the remaining percentage of the compound.

[2] = Stability test in canine liver microsomes; type: in vitro ADME; settings: dog
Method: as §1, with “6.” for “3.”, “Canine” for “Mouse”, “canine” for “mouse”, “15, 30, 45” for “10, 20, 30”

[3] = Stability test in monkey liver microsomes; type: in vitro ADME
Method: as §1, with “4.” for “3.”, “Monkey” for “Mouse”, “monkey” for “mouse”, “15, 30, 45” for “10, 20, 30”

PDE10A1 = molecular target: T2, PDE10A1 (Homo sapiens, UniProt Q9Y233); assay: PDE10A1 inhibition by fluorescence polarization; type: biochemical; settings: PDE10A1 kit, read-out: IC50 (μM), inhibitory effect on PDE10A1
T2 construct: purchased Biomol (BPS Bioscience) BPS-60385
T2 sequence (Q9Y233 1-779 isoform Q9Y233-1): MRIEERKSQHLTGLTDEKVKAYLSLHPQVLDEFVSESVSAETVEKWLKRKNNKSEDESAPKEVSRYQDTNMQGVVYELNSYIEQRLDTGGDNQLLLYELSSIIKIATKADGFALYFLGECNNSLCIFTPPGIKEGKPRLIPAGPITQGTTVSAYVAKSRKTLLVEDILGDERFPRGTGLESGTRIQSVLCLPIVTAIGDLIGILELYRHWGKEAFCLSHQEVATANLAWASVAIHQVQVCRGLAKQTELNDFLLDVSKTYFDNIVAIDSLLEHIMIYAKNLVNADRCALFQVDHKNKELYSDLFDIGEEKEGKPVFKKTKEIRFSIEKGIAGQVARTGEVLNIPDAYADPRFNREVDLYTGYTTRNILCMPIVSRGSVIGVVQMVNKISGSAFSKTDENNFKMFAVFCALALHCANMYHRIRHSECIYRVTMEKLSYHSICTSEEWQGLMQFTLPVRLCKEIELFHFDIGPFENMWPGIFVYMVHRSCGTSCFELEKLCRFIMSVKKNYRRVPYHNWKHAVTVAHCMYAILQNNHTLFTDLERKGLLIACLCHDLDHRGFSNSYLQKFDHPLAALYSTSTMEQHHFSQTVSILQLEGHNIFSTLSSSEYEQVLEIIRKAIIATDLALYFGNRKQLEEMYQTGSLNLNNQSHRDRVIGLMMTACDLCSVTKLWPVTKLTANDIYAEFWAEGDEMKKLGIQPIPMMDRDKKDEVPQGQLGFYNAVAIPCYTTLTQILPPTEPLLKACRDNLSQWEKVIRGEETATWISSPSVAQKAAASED
Description: 8. Activity of the Compounds on PDE10A1
In this experiment, the effect of the compounds on the inhibition of PDE10A1 activity was detected by the method of fluorescence polarization. PDE10A1 kit was used for detection (Biomol, BPS-60385). […]

[4] = Stability test in human liver microsomes; type: in vitro ADME; settings: human liver microsomes 0.5 mg/mL, 1 μM compound, NADPH, 37° C.
Method: as §1, with “7.” for “3.”, “Human” for “Mouse”, “human” for “mouse”

GLP-1 receptor = molecular target: T3, GLP-1 receptor (Homo sapiens, UniProt P43220); assay: HEK293/CRE-luc/GLP-1R cell luciferase reporter test (agonistic effect on GLP-1 receptor); type: cell-based; settings: HEK293/CRE-luc/GLP-1R cells
T3 construct: expressed in transfected cells
T3 sequence (P43220 24-463): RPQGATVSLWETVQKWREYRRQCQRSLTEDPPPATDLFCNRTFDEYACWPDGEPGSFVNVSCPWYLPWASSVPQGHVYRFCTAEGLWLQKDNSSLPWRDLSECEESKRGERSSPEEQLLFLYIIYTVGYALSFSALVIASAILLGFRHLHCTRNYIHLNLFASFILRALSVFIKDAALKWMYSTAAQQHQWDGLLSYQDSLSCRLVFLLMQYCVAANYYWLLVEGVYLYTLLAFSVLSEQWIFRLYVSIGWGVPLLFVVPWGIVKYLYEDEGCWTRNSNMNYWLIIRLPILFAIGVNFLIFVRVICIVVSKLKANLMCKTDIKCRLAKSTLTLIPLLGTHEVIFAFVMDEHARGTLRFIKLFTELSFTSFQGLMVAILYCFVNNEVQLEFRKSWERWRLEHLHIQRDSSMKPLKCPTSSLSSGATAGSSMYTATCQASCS
Method: 1. HEK293/CRE-luc/GLP-1β cell viability
Cell: HEK293/CRE-luc/GLP-1R
Cell culture medium: DMEM+10% FBS+400 μg/ml G418+100 μg/ml Hygromycin B
Frozen stock solution: 90% FBS, 10% (V/V) DMSO
Detection buffer: DMEM+1% FBS
Cells were cultured in DMEM medium+10% FBS+400 μg/ml G418+100 μg/ml Hygromycin B in a CO2 incubator at 37° C., and passaged once every 3-4 days.
Cell plating: Trypsinization adjusted the cell density to 1.67×10^5 cells/mL; 60 μL of cells per well (10000 cells/well) was inoculated in a 384-well plate containing compounds; A NC well (negative control) and a background well (no cells) were set. Incubation was performed for about 18+2 h in the incubator.
Compounds were serially diluted with the detection buffer, and the detection concentration was 0.01 nM-1000 nM.
The cell culture plate was removed and all supernatant was aspirated from the cells. The cells were washed gently 2 times with 1×PBS.
The diluted compound was added to a 384-well plate (10 μL/well), and three replicate wells were set for each concentration. 10 μL of the detection buffer was added to the NC well, sealed and incubated at 37° C. for 6 hours.
The plate was removed, the cells were allowed to equilibrate to room temperature (at least 15 min), and then all supernatant was aspirated from the cells.
Steady-Glo® Reagent was added to the sample well at 10 μL/well and incubated at room temperature for 5 min to lyse the cells.
The test results were read with a BMG microplate reader.
The mean background value was calculated.
The induction factor (Fold of induction, FI)=(induction well value−background value)/(negative control well value −background value) was calculated.
The EC50 value of the sample was calculated using Graphpad Prim 8.0 software using four-parameter fitting analysis.
Mean and standard error (Mean±SEM) were calculated for all results and Graphpad Prism software was used for statistical analysis. Specific data were presented in the form of graphs. P<0.05 was considered to be statistically different.

[5] = 6 hours incubation, class symbols, read-out: EC50
[6] = bound stated, read-out: EC50 value

SMILES	pIC50 (hERG potassium channel)	half-life at 1 μM [1] [h]	microsomal CLint at 1 μM [1] [µL/min/mg]	pEC50 (GLP-1 receptor; [5])	pEC50 (GLP-1 receptor; [6])	also measured
CC1(c2ccc(C#N)cc2F)Oc2cccc(C3CCN(Cc4nc5sc(C(=O)O)cc5n4C[C@@H]4CCO4)CC3)c2O1 (stereo partly shown) [Compound 5-2]	< 4.40	93.1	0.252	–	–	–
N#Cc1ccc(COc2cccc(C3CCN(Cc4nc5sc(C(=O)O)cc5n4C[C@@H]4CCO4)CC3)n2)c(F)c1 [Compound 1, (S)-2-((4-(6-((4-cyano-2-fluorobenzyl)oxy)pyridin-2-yl)piperidin-1-yl)methyl)-1-(oxetan-2-ylmethyl)-1H-thieno[2,3-d]imidazole-5-carboxylic acid]	4.47	–	–	–	–	microsomal CLint at 1 μM ([2]; microsomes): 0.23 µL/min/mg; half-life at 1 μM ([2]; canine liver microsomes 0.5 mg/mL, 1 μM compound, NADPH, 37° C.): 102 h
N#Cc1ccc(COc2cccc(C3=CCN(Cc4nc5sc(C(=O)O)cc5n4C[C@@H]4CCO4)CC3)n2)c(F)c1 [Compound 2, (S)-2-((6-((4-cyano-2-fluorobenzyl)oxy)-3′,6′-dihydro-[2,4′-bipyridin]-1′(2′H)-yl)methyl)-1-(oxetan-2-ylmethyl)-1H-thieno[2,3-d]imidazole-5-carboxylic acid]	4.28	23.6	0.977	–	–	half-life at 1 μM ([3]; monkey liver microsomes 0.5 mg/mL, 1 μM compound, NADPH, 37° C.): 14 h; microsomal CLint at 1 μM ([3]; monkey, microsomes): 1.6 µL/min/mg; IC50 (PDE10A1): > 500 µM
N#Cc1ccc(COc2cccc(-c3ccc(Cc4nc5ccc(C(=O)O)cc5n4C[C@@H]4CCO4)c(F)c3)n2)c(F)c1 [Compound DZ-6, reference compound]	–	2.17	10.6	–	–	half-life at 1 μM [4]: 2.88 h; microsomal CLint at 1 μM ([4]; read-out: CLint(mic)): 8.01 µL/min/mg
N#Cc1ccc(COc2cccc(-c3cnn(Cc4nc5sc(C(=O)O)cc5n4C[C@@H]4CCO4)c(=O)c3)n2)c(F)c1 [Compound 9, (S)-2-((4-(6-((4-cyano-2-fluorobenzyl)oxy)pyridin-2-yl)-6-oxopyridazin-1(6H)-yl)methyl)-1-(oxetan-2-ylmethyl)-1H-thieno[2,3-d]imidazole-5-carboxylic acid]	–	–	–	> 8.00	> 8.00	–
C[C@H]1CN(c2cccc(OCc3ccc(C#N)cc3F)n2)CCN1Cc1nc2sc(C(=O)O)cc2n1C[C@@H]1CCO1 [Trifluoroacetate salt of compound 3, 2-(((S)-4-(6-((4-cyano-2-fluorobenzyl)oxy)pyridin-2-yl)-2-methylpiperazin-1-yl)methyl)-1-(((S)-oxetan-2-yl)methyl)-1H-thieno[2,3-d]imidazole-5-carboxylic acid]	–	–	–	> 8.00	> 8.00	–
N#Cc1ccc(COc2cccc(C3CCN(Cc4nc5cc(C(=O)O)sc5n4C[C@@H]4CCO4)CC3)n2)c(F)c1 [Compound 16, (S)-2-((4-(6-((4-cyano-2-fluorobenzyl)oxy)pyridin-2-yl)piperidin-1-yl)methyl)-3-(oxetan-2-ylmethyl)-3H-thieno[2,3-d]imidazole-5-carboxylic acid]	–	–	–	> 8.00	> 8.00	–
